Assay results reported in patent US10774084B2, “Adenine derivatives and their use as UV-photoprotective agents” (UNIVERZITA PALACKEHO V OLOMOUCI, priority 2015, dated 2020).

Key:
[1] = tested on: MCF-7; assay: Calcein AM cytotoxicity assay; format: cell-based; settings: Homo sapiens, MCF7, 72 hrs
Source text: (§1) One of the parameters used as the base for cytotoxic analysis is metabolic activity of viable cells. Microtiter assay, which uses the Calcein AM, is now widely used to quantify cell proliferation and cytotoxicity. The quantity of […] Calcein AM corresponds to the number of viable cells in culture. The cell lines of breast cancer (MCF-7), human erythromleukemia (K562), BJ human fibroblast cells (BJ) and human keratinocyte cell line (HaCaT) were used for routine screening of cytotoxicity of the compounds. The cells were maintened in Nunc/Corning 80 cm^2 plastic bottles and grown in media for cell culture (DMEM containing 5 g/l of glucose, 2 mM of glutamin, 100 U/ml of penicilin, 100 μg/ml of streptomycin, 10% of fetal bovine serum and sodium hydrogencarbonate). Cell suspensions were diluted according to cell types and according to expected final cell density (10^4 of cells per well according to characteristics of cell growth), pippeted 80 μl of cell suspension on 96-well microtiter plates. Innoculates were stabilized by 24 hrs preincubation at 37° C. in CO2. Particular concentrations of tested compounds were added in time zero as 20 μl aliquotto wells of microtiter plates. Usually, the compounds were diluted into six concentrations in four-fold dilution series. In routine testing, the highest well concentration was 166.7 μM, of change dependent on the substance. All drug concentrations were examined in duplicates. The incubation of cells with tested derivatives lasted 72 hrs at 37° C., 100% humidity and in the atmosphere of CO2. At the end of the incubation period, the cells were tested and analysed according to the addition of Calcein AM (Molecular probes) solution and the incubation lasted for next 1 hour. Fluorescence (FD) was measured using Labsystem FIA reader Fluorskan Ascent (Microsystems). The survival of tumor cells (The tumor cell survival-TCS) was counted according to equation: […](FDwell with derivative/FDcontrol well)×100%. The value of GI50, that is equal to the concentration of compound at which 50% of tumour cells are terminated. To evaluate the antitumor activity was tested toxicity of new derivatives on panel of cell lines of different histogenetic and species origin (Tab. 6, G150 concentration given in μM). […] Effective derivatives killed tumor cells in concentrations close to 0.1 to 50. None of the newly prepared compounds only reached the value.

[2] = tested on: K562; assay: Calcein AM cytotoxicity assay; format: cell-based; settings: Homo sapiens, 72 hrs
Source text: as §1

[3] = tested on: HaCaT; assay: Calcein AM cytotoxicity assay; format: cell-based; settings: Homo sapiens, 72 hrs
Source text: as §1

[4] = tested on: BJ human fibroblast cells; assay: Calcein AM cytotoxicity assay; format: cell-based; settings: 72 hrs
Source text: as §1

[5] = tested on: HaCaT; assay: In vitro phototoxicity test (neutral red) on HaCaT; format: cell-based, human
Experimental: Spontaneously Immortalized Aneuploid Human Keratinocyte Cell Line (HaCaT) was bought from CLS (Eppeheim, Germany) and used as an in vitro model. For all experiments the keratinocytes were seeded onto 96-well plates at a density of 1.6×10^5 cells/ml (0.2 ml per well) of growth medium (DMEM supplemented with fetal bovine serum (10%), penicillin ([…]) and streptomycin (100 U/ml)).
Test substances included compounds number 3, 9, 15 and 20. Compounds were dissolved in DMSO and then diluted in serum free medium (DMEM supplemented penicillin (100 mg/ml) and streptomycin (100 U/ml)). After 24 h incubation was growth medium changed to serum free medium containing test compound or DMSO (negative control). The final applied concentrations range was 3.9-125 μmol/l. As a control, serum free medium supplemented with appropriate concentration of DMSO (0.5%, v/v) was used. In parallel with test compound, chlorpromazine (CPZ; 0.8-50 μmol/l) was used as a known phototoxic compound. The test compound was in parallel applied on two 96-well plates with HaCaT. After 60 minutes incubation with test compound medium was discarded, cells were washed two-times with PBS and PBS supplemented with glucose (1 mg/ml) was applied. A plate was then exposed to a non-cytotoxic dose of UVA radiation (5.0 J/cm2) using a solar simulator SOL 500 (Dr. Hoenle Technology, Germany) equipped with a H1 filter transmitting wavelengths of 320-400 nm. Intensity of UVA radiation was evaluated before each irradiation by UVA-meter. A control (non-irradiated) plate was for the period of irradiation incubated in dark. After UVA exposure PBS with glucose was discarded and serum free medium was applied. After 24 hours (37° C., 5% CO2) cell damage was evaluated by neutral red (NR) incorporation into viable cells. Medium was discarded and NR solution (0.03% w/v, PBS) was applied. After 60 minutes NR solution was discarded, cells were fixed with a mixture of formaldehyde (0.5%, v/v) and CaCl2 (1%, m/v) in ratio 1:1 and then NR was dissolved in methanol (50%, v/v) with acetic acid (1%, v/v). After 5 minutes of intensive shaking absorbance was measured at 540 nm. Experiments were performed in four independent repetition with use of cells from four donors to minimize individual sensitivity of donor cells. Phototoxic effect was evaluated as % of viability of control cells that was calculated from experimental data (absorbance) according to the following equation: […]
AS . . . absorbance of sample (cells pre-incubated with test compound in serum free medium and irradiated)
AC . . . absorbance of control (cells pre-incubated with DMSO in serum free medium and irradiated)
AB . . . absorbance of background (extraction solution)

SMILES	GI50 [1]	GI50 [2]	GI50 [3]	GI50 [4]	HaCaT viability ([5]; +UVA 5.0 J/cm2, 3.9 μmol/l)	HaCaT viability ([5]; +UVA 5.0 J/cm2, 7.8 μmol/l)	HaCaT viability ([5]; +UVA 5.0 J/cm2, 15.6 μmol/l)	HaCaT viability ([5]; +UVA 5.0 J/cm2, 31.3 μmol/l)	HaCaT viability ([5]; +UVA 5.0 J/cm2, 62.5 μmol/l)	HaCaT viability ([5]; +UVA 5.0 J/cm2, 125 μmol/l)	HaCaT viability ([5]; −UVA, 3.9 μmol/l)	HaCaT viability ([5]; −UVA, 7.8 μmol/l)	HaCaT viability ([5]; −UVA, 15.6 μmol/l)	HaCaT viability ([5]; −UVA, 31.3 μmol/l)	HaCaT viability ([5]; −UVA, 62.5 μmol/l)	HaCaT viability ([5]; −UVA, 125 μmol/l)	viability of HaCaT cells ([5]; UVA+, 3.1 μmol/l)	viability of HaCaT cells ([5]; UVA−, 25 μmol/l)
c1nc(NCC2CCCO2)c2ncn(C3CCCO3)c2n1 (centres unmarked) [Compound 1, 6-(tetrahydrofuran-2-ylmethylamino)-9-(tetrahydrofuran-2-yl)purine]	> 100 µM	> 100 µM	> 100 µM	> 100 µM														
OCc1ccc(CNc2ncnc3c2ncn3C2CCCO2)o1 (centres unmarked) [Compound 3, 6-(5-hydroxymethylfuran-2-ylmethylamino)-9-(tetrahydrofuran-2-yl)purine]					103.88 % control	111.08 % control	107.93 % control	118.43 % control	120.78 % control	124.66 % control	100.1 % control	100.4 % control	102.1 % control	107.8 % control	106.4 % control	109.5 % control		
c1csc(CNc2ncnc3c2ncn3C2CCCO2)c1 (centres unmarked) [Compound 9, 6-(thiophen-2-ylmethylamino)-9-(tetrahydrofuran-2-yl)purine]	> 100 µM	> 100 µM	> 100 µM	> 100 µM	122.7 % control	124.2 % control	120.5 % control	128.1 % control	129.9 % control	126.6 % control	101 % control	101.1 % control	100.4 % control	101.8 % control	103.9 % control	103.4 % control		
Clc1nc(NCc2ccco2)c2ncn(C3CCCO3)c2n1 (centres unmarked) [Compound 15, 2-chloro-6-furfurylamino-9-(tetrahydrofuran-2-yl)purine]					116.4 % control	119.9 % control	119.9 % control	118.8 % control	115.7 % control	104 % control	106.5 % control	107.4 % control	108.6 % control	108.6 % control	109.2 % control	105 % control		
Clc1nc(NCC2CCCO2)c2ncn(C3CCCO3)c2n1 (centres unmarked) [Compound 20, 2-chloro-6-(tetrahydrofuran-2-ylmethylamino)-9-(tetrahydrofuran-2-yl)purine]	> 100 µM	> 100 µM	> 100 µM	> 100 µM	104.6 % control	112.1 % control	110.1 % control	121.4 % control	125.8 % control	125.9 % control	103.5 % control	102.9 % control	104.1 % control	108.6 % control	110.7 % control	110.5 % control		
CN(C)CCCN1c2ccccc2Sc2ccc(Cl)cc21 [chlorpromazine, reference compound]																	below 80 % of control	below 70%
